Key:
mouse NSPCs = experiment: Neurosphere size after co-incubation with probe; assay type: cell-based; details: 1 μM, 7 days
NS-5 cells = experiment: Subcellular co-localization with organelle trackers by confocal microscopy; assay type: cell-based, mouse
Protocol: Hoechst 33342 (2 μM) and CDg13 (1 μM) were added to the cell culture medium. After incubation for 1 hour, culture media were changed with BSA-free medium to maintain CDg13 staining. The organelle specific chemical probes, ER-Tracker™ Red, BODIPY® TR Ceramide, LysoTracker® Red DND-99 and MitoTracker® Deep Red FM, were used to stain endoplasmic reticulum, Golgi apparatus, lysosome and mitochondria, respectively according to manufacturer's instructions (Molecular Probe). The subcellular staining was observed under confocal microscope and their co-localizations were analyzed by Pearson's Collection and Mander's overlap using NIS-Elements software of Eclipse Ti microscope (Nikon).
NS-5 cells stained with CDg13, Hoechst33342 and/or organelle markers were observed using A1R+si confocal microscope (Nikon) within 1 hour after staining. The live NS-5 cells were loaded into a pre-heated plate with supplemented 5% CO2. Fast scanning less than 250 ms with 4 times scan were used to prevent phototoxicity onto the cells.

ABCG2 = target: T1, ABCG2 (Homo sapiens, UniProt Q9UNQ0); experiment: Probe response to Ko143 in RPMI-8226 cells; assay type: cell-based; design: pre-treatment of RPMI-8226 cells with or without Ko143; endogenous in cells; host or cells: RPMI-8226; details: RPMI-8226, Ko143 pre-treatment, 1 μM probe
T1 sequence (Q9UNQ0 1-655): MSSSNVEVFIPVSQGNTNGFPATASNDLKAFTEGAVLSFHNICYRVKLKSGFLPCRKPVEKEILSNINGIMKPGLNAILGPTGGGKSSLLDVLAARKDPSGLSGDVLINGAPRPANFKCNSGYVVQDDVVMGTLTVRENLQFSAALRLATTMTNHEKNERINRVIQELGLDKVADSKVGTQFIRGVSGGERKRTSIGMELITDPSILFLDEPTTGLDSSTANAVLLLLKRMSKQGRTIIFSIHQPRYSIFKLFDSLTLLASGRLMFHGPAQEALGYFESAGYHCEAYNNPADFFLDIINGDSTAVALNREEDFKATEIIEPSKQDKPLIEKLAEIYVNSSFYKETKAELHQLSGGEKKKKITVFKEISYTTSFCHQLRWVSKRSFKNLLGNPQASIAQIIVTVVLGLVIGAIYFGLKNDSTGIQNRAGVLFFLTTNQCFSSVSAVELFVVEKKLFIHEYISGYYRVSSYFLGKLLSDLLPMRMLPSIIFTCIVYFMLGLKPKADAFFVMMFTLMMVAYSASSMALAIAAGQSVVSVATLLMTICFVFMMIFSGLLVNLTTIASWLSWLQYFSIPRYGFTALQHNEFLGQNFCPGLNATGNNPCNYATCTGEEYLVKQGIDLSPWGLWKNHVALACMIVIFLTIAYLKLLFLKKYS
Protocol: FIGS. 11A-11B show CDg13 has high sensitivity to ABCG2: (A) and (B) pre-treatment of RPMI-8226 cells with or without Ko143 were conducted for 30 minutes prior to staining with 1 μM of CDg13, pheophorbide A (PhA) or CDr3, fold change of fluorescence intensity from 3-6 independent experiments (A) (values are means±SEM, *, p<0.05; **, p<0.01), and representative fluorescence histogram of CDg13 and PhA (B) (unstained, 0, 100, 1,000 and 5,000 nM of Ko143 treated group is presented).

[1] = system: E14.5 mouse embryonic brain cells; experiment: Neurosphere formation of FACS-sorted E14.5 embryonic brain cells; assay type: cell-based; details: 6 days culture, >50 μm diameter, 10,000 cells/well
Excerpt: For the counting of the number of neurosphere, we selected 6 days-cultured neurospheres having larger than 50 μm of diameter. The whole neurospheres in a well were counted to reduce random counting error using EVOS microscope (Advanced Microscopy Group).
E14.5 embryos were obtained from C57BL/6 pregnant mice. Cerebral cortices were removed and triturated into single-cell suspension by digestion of dissected tissues with StemPro® Accutase® (Invitrogen) and filtered through 40 μm nylon mesh. The brain cells were collected by centrifugation with 400×g for 3 min and resuspended in neurosphere growth medium [DMEM/F12 supplemented with 2% B27 (without vitamin A), bFGF (10 ng/ml), EGF (20 ng/ml), 1× anti-anti]. The cells were stained for 1 hour with 1 μM of CDg13 in neurosphere growth medium. After collecting cells by centrifuge as described above, the cells were resuspended to BSA-free DMEM (phenol red free) and added propidium iodide (PI) at a concentration of 1 μg/ml to distinguish dead cells. FACS sorting was performed using the MoFlo XDP cell sorter (Beckman Coulter). Cells were sorted by pre-gating with FSC/SSC properties to exclude small debris having FSC^low/SSC^low. To isolate CDg13 stained cell population, we used a 488 nm laser excitation and a 529/28 BP filter to collect emitted light. Dead cells stained by PI were detected with a 488 nm excitation and a 620/29 BP emission. […]

SMILES: CCCCCCCCCN(CCCCCCCCC)C(=O)c1ccc(-c2c3cc(Cl)c(=O)cc-3oc3cc(O)c(Cl)cc23)cc1 [CDg13]
- effect on neurosphere size (mouse NSPCs): no significant difference in neurosphere size
- neurosphere size on average (mouse NSPCs; third passage): 109 μm
- co-localization with other organelle markers (NS-5 cells; Golgi, lysosome, mitochondria trackers): below 0.83
- co-localization with ER (Pearson's Collection and Mander's overlap) (NS-5 cells; live NS-5 cells, ER tracker): 0.97
- sensitivity of response to ABCG2 (ABCG2): higher sensitivity and produced more consistent data than PhA
- number of neurospheres of CDg13^bright cells compared to CD133^high cells [1]: 1.5 fold
- number of neurospheres of CDg13^bright cells compared to unsorted brain cells [1]: 5.9 fold

— patent US20180024136A1, “Development of ABCG2-Sensitive Fluorescent Probe For Isolation of ABCG2low Neural Stem/Progenitor Cells” (National University of Singapore, priority 2015, published 2018)
